Data: patent publication US11065304B2, “Peptide pharmaceuticals for insulin resistance” (MEDERIS DIABETES, LLC, priority 2012, dated 2021)

Assays:
GLP-1 R [1] = molecular target: T1, GLP-1 R (Homo sapiens, UniProt P43220); experiment: DiscoveRx LeadHunter cellular assay, arrestin activation, GLP-1 receptor; format: cell-based
Protocol: (§1) § means superagonist A further series of cellular assays were carried out using standard cellular assays (DiscoveRx, LeadHunter assays) using readout of cAMP stimulation or arrestin activation. Compounds were weighed precisely in an amount of approximately 1 mg and shipped to DiscoveRx for dilution and assay.

glucagon R = molecular target: T2, glucagon R (Homo sapiens, UniProt P47871); experiment: DiscoveRx LeadHunter cellular assay, cAMP stimulation, glucagon receptor; format: cell-based
T2 construct: host or cells: CHO cells
Protocol: as §1

GLP-1 R [2] = molecular target: T1, GLP-1 R; experiment: DiscoveRx LeadHunter cellular assay, cAMP stimulation, GLP-1 receptor; format: cell-based
Protocol: as §1

db/db mice = experiment: In vivo assay in db/db mice (blood glucose, body weight, food consumption); conditions: for db/db mice - Mean Blood Glucose, 10 hr: 10 hr after first dose; for db/db mice - Mean Blood Glucose, 24 hr: 24 hr after first dose; for db/db mice - Mean Blood Glucose, 48 hr: 48 hr after first dose
Protocol: The 60 female db/db B6BKS (D) Leprdb/J (strain 000697) mice for this study were approximately 8 to 9 weeks old at arrival (Jackson Laboratory, Bar Harbor, Me.). […] One group of 8 female mice served as the vehicle control and received the vehicle, 0.2% BSA in saline, pH 7.4. One additional group of 8 female mice received the positive control article, liraglutide, at a dose level of 50 nmoles/kg. The test articles, vehicle, and positive control article were administered on Day 1, at approximately 0, 7, and 24 hours during the study via subcutaneous injection at a dose volume of 6 mL/kg.
Clinical observations were conducted at receipt, prior to randomization, and daily from Days 1 to 5. Body weights were measured and recorded at receipt, prior to randomization, and daily from Days 1 to 5. Food consumption was measured and recorded daily from Days 1 to 5. Blood samples for glucose analysis were collected pretest (Day −3) and at 0, 1, 2, 4, 8, 10, 24, 48, 72, and 96 hours following the first dose on Day 1. At study termination all animals were euthanized and the carcasses were discarded without further evaluation.

T1 sequence (P43220 24-463): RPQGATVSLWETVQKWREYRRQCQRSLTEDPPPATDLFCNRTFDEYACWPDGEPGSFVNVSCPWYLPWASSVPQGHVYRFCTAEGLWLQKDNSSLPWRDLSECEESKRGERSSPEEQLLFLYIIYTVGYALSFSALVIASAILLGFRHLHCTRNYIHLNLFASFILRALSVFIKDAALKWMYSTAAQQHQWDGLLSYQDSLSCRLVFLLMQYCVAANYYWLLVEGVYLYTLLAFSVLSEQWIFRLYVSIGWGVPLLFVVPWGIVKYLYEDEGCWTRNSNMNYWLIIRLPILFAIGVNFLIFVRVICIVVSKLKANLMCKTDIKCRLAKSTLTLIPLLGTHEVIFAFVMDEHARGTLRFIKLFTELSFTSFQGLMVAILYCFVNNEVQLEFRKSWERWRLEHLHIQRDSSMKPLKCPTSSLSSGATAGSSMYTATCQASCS
T2 sequence (P47871 26-477): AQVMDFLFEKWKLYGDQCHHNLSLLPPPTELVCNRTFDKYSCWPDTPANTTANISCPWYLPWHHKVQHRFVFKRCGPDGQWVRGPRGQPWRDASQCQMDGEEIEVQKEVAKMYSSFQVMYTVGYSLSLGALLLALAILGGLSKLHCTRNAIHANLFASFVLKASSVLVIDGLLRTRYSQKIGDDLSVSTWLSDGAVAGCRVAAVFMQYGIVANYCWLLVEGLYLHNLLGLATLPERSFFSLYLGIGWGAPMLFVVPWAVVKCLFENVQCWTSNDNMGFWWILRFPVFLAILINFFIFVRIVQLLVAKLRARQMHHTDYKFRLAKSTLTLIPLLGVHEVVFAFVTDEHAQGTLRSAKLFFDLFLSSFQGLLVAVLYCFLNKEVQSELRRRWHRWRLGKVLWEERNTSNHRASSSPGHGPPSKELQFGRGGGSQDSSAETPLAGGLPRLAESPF

Work on `CCCCCCCCCCCCO[C@@H]1O[C@H](C(=O)NCCCC[C@H](NC(=O)[C@@H](NC(=O)[C@H](Cc2ccccc2)NC(=O)[C@H](CCC(=O)O)NC(=O)[C@@H]2CCCCNC(=O)CC[C@H](NC(=O)[C@H](CC(=O)O)NC(=O)[C@H](CC(C)C)NC(=O)[C@H](Cc3ccc(O)cc3)NC(=O)[C@H](CCCCN)NC(=O)[C@H](CO)NC(=O)[C@H](Cc3ccc(O)cc3)NC(=O)[C@H](CC(=O)O)NC(=O)[C@H](CO)NC(=O)[C@@H](NC(=O)[C@H](Cc3ccccc3)NC(=O)[C@@H](NC(=O)CNC(=O)[C@H](CCC(N)=O)NC(=O)C(C)(C)NC(=O)[C@@H](N)Cc3c[nH]cn3)[C@@H](C)O)[C@@H](C)O)C(=O)N[C@@H](CCC(N)=O)C(=O)N[C@@H](C)C(=O)N[C@@H](C)C(=O)N2)[C@@H](C)CC)C(=O)N[C@@H](Cc2c[nH]c3ccccc23)C(=O)N[C@@H](CC(C)C)C(=O)N[C@@H](CC(C)C)C(=O)N[C@@H](CCC(N)=O)C(=O)N[C@H](C(N)=O)[C@@H](C)O)[C@@H](O)[C@H](O)[C@H]1O` [EU-A993, His1-Aib2-Gln3-Gly4-Thr5-Phe6-Thr7-Ser8-Asp9-Tyr10-Ser11-Lys12-Tyr13-Leu14-Asp15-Glu*16-Gln17 Ala18-Ala19-Lys*20-Glu21-Phe22-Ile23-Lys(N-omega(1-dodecylbeta-D-glucuronyl))24-Trp25-Leu26-Leu27-Gln28-Thr29-NH2] yielded an EC50 (GLP-1 R [1]) of 12.3 nM, an EC50 (glucagon R) of under 0.05 nM and an EC50 (GLP-1 R [2]) of under 0.05 nM. The “db/db mice - Mean Blood Glucose, 0 hr” value (db/db mice; 250 nmole/kg s.c.) was 503 mg/dL, the “db/db mice - Mean Blood Glucose, 10 hr” value (db/db mice; 250 nmole/kg s.c.) was 305 mg/dL and the “db/db mice - Mean Blood Glucose, 24 hr” value (db/db mice; 250 nmole/kg s.c.) was 324 mg/dL. The “db/db mice - Mean Blood Glucose, 48 hr” value (db/db mice; 250 nmole/kg s.c.) was 426 mg/dL.
`CCCCCCCCCCCCCCO[C@@H]1O[C@H](C(=O)NCCCC[C@H](NC(=O)[C@@H](NC(=O)[C@H](Cc2ccccc2)NC(=O)[C@H](CCC(=O)O)NC(=O)[C@@H]2CCCCNC(=O)CC[C@H](NC(=O)[C@H](CC(=O)O)NC(=O)[C@H](CC(C)C)NC(=O)[C@H](Cc3ccc(O)cc3)NC(=O)[C@H](CCCCN)NC(=O)[C@H](CO)NC(=O)[C@H](Cc3ccc(O)cc3)NC(=O)[C@H](CC(=O)O)NC(=O)[C@H](CO)NC(=O)[C@@H](NC(=O)[C@H](Cc3ccccc3)NC(=O)[C@@H](NC(=O)CNC(=O)[C@H](CCC(N)=O)NC(=O)C(C)(C)NC(=O)[C@@H](N)Cc3c[nH]cn3)[C@@H](C)O)[C@@H](C)O)C(=O)N[C@@H](CCC(N)=O)C(=O)N[C@@H](C)C(=O)N[C@@H](C)C(=O)N2)[C@@H](C)CC)C(=O)N[C@@H](Cc2c[nH]c3ccccc23)C(=O)N[C@@H](CC(C)C)C(=O)N[C@@H](CC(C)C)C(=O)N[C@@H](CCC(N)=O)C(=O)N[C@H](C(N)=O)[C@@H](C)O)[C@@H](O)[C@H](O)[C@H]1O` [EU-A994, His1-Aib2-Gln3-Gly4-Thr5-Phe6-Thr7-Ser8-Asp9-Tyr10-Ser11-Lys12-Tyr13-Leu14-Asp15-Glu*16-Gln17 Ala18-Ala19-Lys*20-Glu21-Phe22-Ile23-Lys(N-omega(1-tetradecylbeta-D-glucuronyl))24-Trp25-Leu26-Leu27-Gln28-Thr29-NH2] showed an EC50 (GLP-1 R [1]) of 10.2 nM, an EC50 (glucagon R) of under 0.05 nM and an EC50 (GLP-1 R [2]) of 0.05 nM. The “db/db mice - Mean Blood Glucose, 0 hr” value (db/db mice; 300 nmole/kg s.c.) was 554 mg/dL, the “db/db mice - Mean Blood Glucose, 10 hr” value (db/db mice; 300 nmole/kg s.c.) was 242 mg/dL and the “db/db mice - Mean Blood Glucose, 24 hr” value (db/db mice; 300 nmole/kg s.c.) was 209 mg/dL. For the same compound, the “db/db mice - Mean Blood Glucose, 48 hr” value (db/db mice; 300 nmole/kg s.c.) was 385 mg/dL, the “glucose levels versus vehicle” value (db/db mice; db/db mice, 10 and 24 hours, high dose (300 nmoles/kg)) was “significantly different from vehicle” and the “food consumption versus Liraglutide” value (db/db mice; db/db mice, Day 1, high dose (300 nmoles/kg)) was “significantly different from Liraglutide”. The “body weight changes against vehicle” value (db/db mice; db/db mice, Days 2 and 3, liraglutide 50 nmoles/kg, test articles high dose (300 nmoles/kg)) was “Significant body weight changes”.
